Columns and labels:
Format in all cases: in vitro ADME
[1] = Assay 1. Stability in Simulated Gastric Fluid (SGF); settings: SGF pH 1.6 with pepsin, 1 μM, 37° C.
Summary of the method: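 Compound at 1 μM final (from 1 mM DMSO stock) incubated at 37° C in SGF: NaCl medium at pH 1.6 with FaSSIF powder and 0.1 mg/mL pepsin, prepared fresh. Aliquots taken at T0 and regular intervals, quenched with equal volume acetonitrile; LC/MS gives degradation rate.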

[2] = Assay 2. Stability in Simulated Intestinal Fluid (SIF); settings: SIF pH 6.7 with pancreatin, 1 μM, 37° C.
Summary of the method: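 Compounds at 1 µM (from 1 mM DMSO stock) were incubated at 37 °C with agitation in simulated intestinal fluid: FaSSIF in pH 6.7 phosphate buffer with pancreatin. Aliquots taken from T0 onward were quenched with acetonitrile and analyzed by LC/MS for degradation rate.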

[3] = Assay 3. In vitro Colonic Material Stability Assay; settings: colonic material slurry, anaerobic, 1 or 10 μM

SMILES | Assay 1 (SGF) (% Remaining @ 1 hour) [1] | Assay 2 (SIF) (% @ Remaining 4 hours) [2] | Assay 3 (% Remaining at 24 h) [3]
CCC(=O)O[C@@H]1[C@@H](OC(=O)CC)[C@@H](OC(=O)Cc2c[nH]c3ccccc23)OC[C@@H]1OC(=O)CC [Compound 108, (3S,4S,5R,6R)-6-{[2-(1H-indol-3-yl)acetyl]oxy}-4,5-bis(propanoyloxy)oxan-3-yl propanoate] | C (>75% of the tested compound remaining) | A (<25% of the tested compound remaining) | A (<25% of the tested compound remaining)
CC(=O)OC[C@H]1O[C@@H](OC(C)=O)[C@H](N)[C@@H](OC(C)=O)[C@@H]1OC(C)=O [Compound 162, (2S,3R,4R,5S,6R)-6-(acetoxymethyl)-3-aminotetrahydro-2H-pyran-2,4,5-triyl triacetate] | C (>75% of the tested compound remaining) | A (<25% of the tested compound remaining) | C (>75% of the tested compound remaining)
CCC(=O)Oc1cc(OC(=O)CC)c2c(c1)O[C@H](c1ccc(OC(=O)CC)c(OC(=O)CC)c1)[C@H](OC(=O)CC)C2 [Compound 194, (2R,3R)-2-[3,4-bis(propanoyloxy)phenyl]-5,7-bis(propanoyloxy)-3,4-dihydro-2H-1-benzopyran-3-yl propanoate] | B (25-75% of the tested compound remaining) | A (<25% of the tested compound remaining) | A (<25% of the tested compound remaining)
CCC(=O)Oc1ccc(-c2cc(=O)c3c(OC(=O)CC)cc(OC(=O)CC)cc3o2)cc1 [Compound 172, 4-oxo-7-(propanoyloxy)-2-[4-(propanoyloxy)phenyl]-4H-chromen-5-yl propanoate] | C (>75% of the tested compound remaining) | A (<25% of the tested compound remaining) | B (25-75% of the tested compound remaining)
CCCC(=O)OC[C@H]1O[C@@H](OC(=O)CCc2c[nH]c3ccccc23)[C@H](OC(=O)CCC)[C@@H](OC(=O)CCC)[C@@H]1OC(=O)CCC [Compound 85, [(2R,3R,4S,5R,6S)-3,4,5-tris(butanoyloxy)-6-{[3-(1H-indol-3-yl)propanoyl]oxy}oxan-2-yl]methyl butanoate] | B (25-75% of the tested compound remaining) | A (<25% of the tested compound remaining) | A (<25% of the tested compound remaining)
CCC(=O)OC[C@H]1O[C@H](OC)[C@H](OC(=O)CC)[C@@H](OC(=O)CC)[C@H]1OC(=O)CC [Compound 57, [(2R,3S,4S,5R,6S)-6-methoxy-3,4,5-tris(propanoyloxy)oxan-2-yl]methyl propanoate] | C (>75% of the tested compound remaining) | A (<25% of the tested compound remaining) | A (<25% of the tested compound remaining)
CCC(=O)O[C@@H]1[C@@H](OC(=O)CC)[C@H](OC(=O)/C=C/c2c[nH]c3ccccc23)OC[C@H]1OC(=O)CC [Compound 91, (2S,3R,4S,5R)-3,4,5-tris(propanoyloxy)oxan-2-yl (2E)-3-(1H-indol-3-yl)prop-2-enoate] | C (>75% of the tested compound remaining) | A (<25% of the tested compound remaining) | A (<25% of the tested compound remaining)
CCC(=O)O[C@H]1[C@H](OC(=O)/C=C/c2c[nH]c3ccccc23)OC[C@@H](OC(=O)CC)[C@H]1OC(=O)CC [Compound 92, (2S,3R,4R,5R)-3,4,5-tris(propanoyloxy)oxan-2-yl (2E)-3-(1H-indol-3-yl)prop-2-enoate] | C (>75% of the tested compound remaining) | A (<25% of the tested compound remaining) | A (<25% of the tested compound remaining)

Source: patent publication US12115178B2, “Acylated active agents and methods of their use for the treatment of autoimmune disorders” (Flagship Pioneering Innovations V, Inc., priority 2018, dated 2024)
